Read-outs that look alike come from different tables or passages of the source.
Tests used:
[1] = molecular target: recombinant Mcl-1 (residues 172-327) (Homo sapiens (Human), UniProt Q07820); assay: Fluorescence polarization anisotropy competition assay (FITC-Bak or FITC-Bim BH3 peptide) with Mcl-1; type: binding
[2] = system: H929; assay: Apoptosis assay (Caspase 3/7 Glo) H929; type: cell-based; settings: Homo sapiens, NCI-H929; H929 cells, 3 hours, 5% FBS; read-out: EC50 on cellular caspase 3/7 activation, H929
Description: Induction of apoptosis was measured by quantifying caspase 3/7 activity using the commercially available Caspase-Glo reagent (Promega, Madison, Wis., USA). This assay relies on the cleavage of a proluminescent substrate by activated caspases, which is then detected on the BioTek Cytation 3. 5000 cells in 90 μL of media (+5% FBS) are plated in each well of a white 96-well plate and incubated overnight at 37° C. in a tissue culture incubator. The following day, compound is diluted in a 10-pt, 2-fold serial dilution scheme for a final top concentration of 50 μM. 10 μL of compound is added directly to the cell assay plate for a final volume of 100 μL. Columns 11 and 12 are reserved for treatment with DMSO to serve as control wells. Plates are incubated for 3 hours. 100 μL of Caspase-Glo reagent is added to each well and plates are incubated at room temperature, in the dark, for 30 minutes. Luminescence is measured on the Cytation 3. Luminescence values are imported into a template in XLFit (Guildford, Surrey, UK) that uses a four-parameter fit to generate an IC50 value for each compound dilution series on the plate.

[3] = system: K562; assay: Cellular viability (Cell TiterGlo) K562; type: cell-based; settings: Homo sapiens; K562 cells, 72 hours, 10% FBS; read-out: IC50 on cellular proliferation, K562
Description: (§1) Human cancer cell lines ALMC-1, ALMC-2, K562, H929, and OPM-2 were cultured in media supplemented with 10% fetal bovine serum (FBS). To evaluate compound effect on cellular proliferation, cells were plated at 1,000 cells/well in 96-well tissue culture plates in a total volume of 90 μL medium supplemented with 10% FBS (Sigma, Saint Louis, Mo.). 24 hours later, 10 μL of compound (in a 2-fold serial dilution) is added to the cells for a top concentration of 50 μM and a final DMSO concentration <1%. After 72 hours, 50 μL of Cell TiterGlo (Promega, Madison, Wis., USA) reagent is added to each well and plates are incubated at room temperature, in the dark, for 30 minutes. Luminescence is measured on a BioTek Cytation 3. Luminescence values are imported into a template in XLFit (Guildford, Surrey, UK) that uses a four-parameter fit to generate an IC50 value for each compound dilution series on the plate.

[4] = system: H929; assay: Cellular viability (Cell TiterGlo) H929; type: cell-based; settings: Homo sapiens, NCI-H929; H929 cells, 72 hours, 10% FBS; read-out: IC50 on cellular proliferation, H929
Description: as §1

[5] = system: ALMC-1; assay: Cellular viability (Cell TiterGlo) ALMC-1; type: cell-based; settings: Homo sapiens, ALMC1; ALMC-1 cells, 72 hours, 10% FBS; read-out: IC50 on cellular proliferation, ALMC-1
Description: as §1

[6] = system: ALMC-2; assay: Cellular viability (Cell TiterGlo) ALMC-2; type: cell-based; settings: Homo sapiens, ALMC2; ALMC-2 cells, 72 hours, 10% FBS; read-out: IC50 on cellular proliferation, ALMC-2
Description: as §1

[7] = system: OPM-2; assay: Cellular viability (Cell TiterGlo) OPM-2; type: cell-based; settings: Homo sapiens; OPM-2 cells, 72 hours, 10% FBS; read-out: IC50 on cellular proliferation, OPM-2
Description: as §1

[8] = molecular target: Bcl-xL (residues 1-209, loop 45-86 deleted) (Homo sapiens (Human), UniProt Q07817, DEL45-86); assay: Fluorescence polarization anisotropy competition selectivity assay (FITC-Bak peptide) with Bcl-xL; type: binding; settings: Table 3; 4 nM Bcl-xL, 10 nM FITC-Bak
Description: (§2) Compound affinity was measured using a fluorescence polarization anisotropy competition assay. Anisotropy measurements were carried out in 384-well, black, flat-bottom plates (Greiner Bio-one, Monroe, N.C., USA). The assay was run using either a fluorescein isothiocyanate-labeled BH3 peptide derived from Bak (FITC-AHx-[…]-NH2) or a fluorescein isothiocyanate-labeled BH3 peptide derived from Bim (FITC-AHx-[…]-NH2) that were purchased from GenScript (Piscataway, N.J.) at >95% purity and used without further purification. 10 nM FITC-Bak peptide and 15 nM recombinant Mcl-1 (residues 172-327) were added to assay buffer (3 mM dithiothreitol, 50 mM NaCl, 20 mM Tris, pH 7.5). The Bim based assay was run with 1 nM FITC-Bim peptide and 1.5 nM recombinant Mcl-1 (residues 172-327) added to assay buffer (20 mM TRIS pH 7.5, 50 mM NaCl, 3 mM DTT, 0.01% CHAPS). For selectivity assays, 40 nM Bcl-2 (residues 1-207^A96T,G110R, Δ35-91, replaced with Bcl-xL35-50) or 4 nM Bcl-xL (residues 1-209, loop 45-86 deleted) were incubated with 10 nM FITC-Bak in assay buffer.
(§3) Compounds are diluted in DMSO in a 10-point, 3-fold serial dilution scheme. For the FITC-BAK assay 2.5 uL compound is added to 47.5 μL of assay buffer containing FITC-Bak and protein, for a final DMSO concentration of 5% and a top concentration of 20 μM. […] […]. The plate was mixed and incubated for 90 minutes at room temperature. Anisotropy is measured at excitation wavelength 480 nm and emission wavelength 535 nm using an EnVision Multi-label plate reader (PerkinElmer, Wellesley, Mass., USA) or a BioTek Cytation 3 (BioTek, Winooski, Vt., USA). […] IC50 is converted to a binding dissociation constant (Ki value) according to the formula of Wang Z. FEBS Lett (1996) 3, 245.

[9] = molecular target: Bcl-2 (residues 1-207 A96T,G110R, Δ35-91, replaced with Bcl-xL35-50) (Homo sapiens, UniProt P10415, A37E/DEL42-87/G36T/INS34DVEEN/P40E/P88T/P90S/P91E/V35R/V89E); assay: Fluorescence polarization anisotropy competition selectivity assay (FITC-Bak peptide) with Bcl-2; type: binding; settings: Table 3; 40 nM Bcl-2, 10 nM FITC-Bak
Description: as §2, §3

[10] = Table 2, Ki bins given in nM, FITC-Bak or FITC-Bim peptide competition, Ki converted from IC50, read-out: Ki for Inhibition of Mcl-1
[11] = Table 3, selectivity panel, read-out: Mcl-1 Ki

Chain of Bcl-xL (residues 1-209, loop 45-86 deleted) (Q07817 other isoform, or with tags, fused parts or gaps del 45-86): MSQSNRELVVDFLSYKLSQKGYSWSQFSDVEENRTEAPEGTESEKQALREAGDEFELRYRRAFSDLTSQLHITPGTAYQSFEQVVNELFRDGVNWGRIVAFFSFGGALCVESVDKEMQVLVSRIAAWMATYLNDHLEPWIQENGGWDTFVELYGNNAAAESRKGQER
Chain of recombinant Mcl-1 (residues 172-327) (Q07820 172-327): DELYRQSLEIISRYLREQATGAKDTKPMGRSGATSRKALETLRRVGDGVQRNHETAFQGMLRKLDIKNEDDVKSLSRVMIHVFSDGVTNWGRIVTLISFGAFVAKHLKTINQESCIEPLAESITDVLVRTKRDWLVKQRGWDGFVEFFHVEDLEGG

EC50 [2] [µM] | IC50 [3] [µM] | IC50 [4] [µM] | SMILES | Ki [1, 10] [nM] | IC50 [5] [µM] | IC50 [6] [µM] | IC50 [7] [µM] | Ki [8] [µM] | Ki [1, 11] [nM] | Ki [9] [µM]
2.3 | – | – | Cc1cc(OCCCc2c(C(=O)NC[C@H]3CC[C@H](C(=O)O)CC3)[nH]c3c(-c4c(C)nn(C)c4C)cccc23)cc(C)c1Cl [I-320, (1R,4R)-4-((3-(3-(4-chloro-3,5-dimethylphenoxy)propyl)-7-(1,3,5-trimethyl-1H-pyrazol-4-yl)-1H-indole-2-carboxamido)methyl)cyclohexane-1-carboxylic acid] | < 50 | – | – | – | – | – | –
– | 14.8 | 4.9 | Cc1cc(C(=O)O)cc(N2CCCn3c(c(CCCOc4cc(C)c(Cl)c(C)c4)c4ccc(Cl)c(-c5c(C)nn(C)c5C)c43)C2=O)c1 [I-220, 3-(8-chloro-11-(3-(4-chloro-3,5-dimethylphenoxy)propyl)-1-oxo-7-(1,3,5-trimethyl-1H-pyrazol-4-yl)-4,5-dihydro-1H-[1,4]diazepino[1,2-a]indol-2(3H)-yl)-5-methylbenzoic acid] | < 50 | – | – | – | – | – | –
– | 25 | 7.3 | Cc1cc(OCCCc2c3n(c4c(-c5c(C)nn(C)c5C)c(Cl)ccc24)CCCN(c2cccc(CC(=O)O)c2)C3=O)cc(C)c1Cl [I-236, 2-(3-(8-chloro-11-(3-(4-chloro-3,5-dimethylphenoxy)propyl)-1-oxo-7-(1,3,5-trimethyl-1H-pyrazol-4-yl)-4,5-dihydro-H-[1,4]diazepino[1,2-a]indol-2(3H)-yl)phenyl)acetic acid] | < 50 | 6.9 | 12.2 | 7.2 | – | – | –
– | – | – | Cc1cc(OCCCc2c(C(=O)N(C)c3cccc(C(=O)O)c3)n(C)c3c(-c4c(C)nn(C)c4C)c(Cl)ccc23)cc(C)c1Cl [I-189, 3-(6-chloro-3-(3-(4-chloro-3,5-dimethylphenoxy)propyl)-N,1-dimethyl-7-(1,3,5-trimethyl-1H-pyrazol-4-yl)-1H-indole-2-carboxamido)benzoic acid] | < 50 | – | – | – | 4.63 | < 7 | 1.37
– | – | – | Cc1cc(OCCCc2c(C(=O)NCc3cc(C(=O)O)n(C)c3)[nH]c3c(-c4c(C)nn(C)c4C)cccc23)cc(C)c1Cl [I-74, 4-((3-(3-(4-chloro-3,5-dimethylphenoxy)propyl)-7-(1,3,5-trimethyl-1H-pyrazol-4-yl)-1H-indole-2-carboxamido)methyl)-1-methyl-1H-pyrrole-2-carboxylic acid] | […] | – | – | – | > 100 | […] | 3.54
3.1 | 11.8 | 8.7 | Cc1cc(OCCCc2c3n(c4c(-c5c(C)nn(C)c5C)c(Cl)ccc24)CCN(c2cccc(C(=O)O)c2)C3=O)cc(C)c1Cl [I-178, 3-(7-chloro-10-(3-(4-chloro-3,5-dimethylphenoxy)propyl)-1-oxo-6-(1,3,5-trimethyl-1H-pyrazol-4-yl)-3,4-dihydropyrazino[1,2-a]indol-2(1H)-yl)benzoic acid] | < 50 | 6.1 | 8.7 | 11.7 | – | – | –
– | – | – | Cc1cc(OCCCc2c(C(=O)Nc3ccc(C(=O)O)cc3)[nH]c3c(-c4c(C)nn(CCN5CCOCC5)c4C)c(Cl)ccc23)cc(C)c1Cl [I-190, 4-(6-chloro-3-(3-(4-chloro-3,5-dimethylphenoxy)propyl)-7-(3,5-dimethyl-1-(2-morpholinoethyl)-1H-pyrazol-4-yl)-1H-indole-2-carboxamido)benzoic acid] | […] | – | – | – | 45.6 | […] | 1.64

SMILES | EC50 [2] [µM] | IC50 [3] [µM] | IC50 [4] [µM] | Ki [1, 10] [nM] | IC50 [5] [µM] | IC50 [6] [µM] | IC50 [7] [µM] | Ki [8] [µM] | Ki [1, 11] [nM] | Ki [9] [µM]
Cc1cc(OCCCc2c3n(c4c(-c5c(C)nn(C)c5C)cccc24)CCN(Cc2cccc(C(=O)O)c2)C3=O)cc(C)c1Cl [I-31, 3-((10-(3-(4-chloro-3,5-dimethylphenoxy)propyl)-1-oxo-6-(1,3,5-trimethyl-1H-pyrazol-4-yl)-3,4-dihydropyrazino[1,2-a]indol-2(1H)-yl)methyl)benzoic acid] | – | 40 | 15 | […] | 13.1 | 33.9 | 16.3 | 6.44 | […] | 2.2

Source: patent US10533010B2, “Substituted indole Mcl-1 inhibitors” (Vanderbilt University, priority 2014, dated 2020)
